Test results from patent publication US20250360107A1, “USE OF MAZINDOL TO TREAT NERVOUS SYSTEM DISORDERS” (AXSOME THERAPEUTICS, INC., priority 2022, published 2025).
Where “and” joins values, the source holds several entries; their conditions need not be identical. Equal entries are not always repeated.

What was measured:
[1] = test system: narcolepsy with cataplexy; assay: Number of cataplexy attacks in a patient with narcolepsy with cataplexy; assay type: in vivo, human; conditions: single patient, 5 mg at 8 am and 5 mg at 1 pm each day
Experimental: (§1) A person is diagnosed as suffering from narcolepsy with cataplexy. They are given mazindol and instructed to take 5 mg of mazindol at 8 am and 5 mg of mazindol at 1 pm each day for three weeks. The patient is evaluated prior to treatment, and weekly to determine the MWT score, the number of cataplexy attacks, the PGI-C score, the HAM-D score, the ESS score, the NSAQ score, and the ability to concentrate on the NSAQ. After one week of treatment, the number of cataplexy attacks have decreased by 10-30%.
as §1, with “30-60%.” for “10-30%.”
A person is diagnosed as suffering from narcolepsy with cataplexy. […]
(§2) A person is diagnosed as suffering from narcolepsy with cataplexy. […] The patient is evaluated prior to treatment, and weekly to determine the MWT score, the number of cataplexy attacks, the PGI-C score, the HAM-D score, the ESS score, the NSAQ score, and the ability to concentrate on the NSAQ. […]

[2] = test system: narcolepsy with cataplexy; assay: Epworth Sleepiness Scale (ESS) score in a patient with narcolepsy with cataplexy; assay type: in vivo, human; conditions: single patient, 5 mg at 8 am and 5 mg at 1 pm each day
Experimental: as §1, with “ESS score has” for “number of cataplexy attacks have”
as §1, with “ESS score has” for “number of cataplexy attacks have”, “30-60%.” for “10-30%.”
as §1, with “After one week of treatment, the number of cataplexy attacks have decreased by 10-30%.” left out

[3] = test system: narcolepsy with cataplexy; assay: Maintenance of Wakefulness Test (MWT) score in a patient with narcolepsy with cataplexy; assay type: in vivo, human; conditions: single patient, 5 mg at 8 am and 5 mg at 1 pm each day
Experimental: (§3) A person is diagnosed as suffering from narcolepsy with cataplexy. They are given mazindol and instructed to take 5 mg of mazindol at 8 am and 5 mg of mazindol at 1 pm […] After one week of treatment, the MWT score has increased by 10-30%.
as §1, with “MWT score has increased” for “number of cataplexy attacks have decreased”, “30-60%.” for “10-30%.”
as §2, §2

[4] = test system: narcolepsy with cataplexy; assay: Hamilton Depression Rating Scale (HAM-D) score in a patient with narcolepsy with cataplexy; assay type: in vivo, human; conditions: single patient; 5 mg at 8 am and 5 mg at 1 pm each day; after three weeks of treatment
Experimental: as §3, with “three weeks” for “one week”, “HAM-D” for “MWT”, “decreased” for “increased”
as §1, with “three weeks” for “one week”, “HAM-D score has” for “number of cataplexy attacks have”, “30-60%.” for “10-30%.”
as §1, with “three weeks” for “one week”, “HAM-D score has” for “number of cataplexy attacks have”, “60-100%.” for “10-30%.”

[5] = human patients; without controlled release coating; cited from earlier work

OC1(c2ccc(Cl)cc2)c2ccccc2C2=NCCN21 (centres unmarked) [mazindol]
2 to 4 h: time to reach a maximum plasma concentration [5]
10-30% and 30-60% and 60-100%: decrease in the number of cataplexy attacks ([1]; after one week of treatment) | decrease in the number of cataplexy attacks ([1]; after three weeks of treatment) | decrease in ESS score ([2]; after one week of treatment) | decrease in ESS score ([2]; after three weeks of treatment) | increase in MWT score ([3]; after one week of treatment) | increase in MWT score ([3]; after three weeks of treatment) | decrease in HAM-D score [4]
